Measurements as given in publication PMC10179080, “In Vivo and In Vitro Characterization of Close Analogs of Compound KA-11, a New Antiseizure Drug Candidate” (International Journal of Molecular Sciences, 2023).
Marks after values point to notes of the source that are not given here.

What was measured:
hERG potassium channel = target: T1, hERG potassium channel (Homo sapiens, UniProt Q12809); assay: Radioligand binding, potassium channel (hERG); conditions: human, human recombinant HEK-293 cells expressing hERG, KA-11 value not published before, read-out: % Inhibition of Control Specific Binding
T1 construct: host or cells: HEK-293 cells
T1 sequence (Q12809 whole entry): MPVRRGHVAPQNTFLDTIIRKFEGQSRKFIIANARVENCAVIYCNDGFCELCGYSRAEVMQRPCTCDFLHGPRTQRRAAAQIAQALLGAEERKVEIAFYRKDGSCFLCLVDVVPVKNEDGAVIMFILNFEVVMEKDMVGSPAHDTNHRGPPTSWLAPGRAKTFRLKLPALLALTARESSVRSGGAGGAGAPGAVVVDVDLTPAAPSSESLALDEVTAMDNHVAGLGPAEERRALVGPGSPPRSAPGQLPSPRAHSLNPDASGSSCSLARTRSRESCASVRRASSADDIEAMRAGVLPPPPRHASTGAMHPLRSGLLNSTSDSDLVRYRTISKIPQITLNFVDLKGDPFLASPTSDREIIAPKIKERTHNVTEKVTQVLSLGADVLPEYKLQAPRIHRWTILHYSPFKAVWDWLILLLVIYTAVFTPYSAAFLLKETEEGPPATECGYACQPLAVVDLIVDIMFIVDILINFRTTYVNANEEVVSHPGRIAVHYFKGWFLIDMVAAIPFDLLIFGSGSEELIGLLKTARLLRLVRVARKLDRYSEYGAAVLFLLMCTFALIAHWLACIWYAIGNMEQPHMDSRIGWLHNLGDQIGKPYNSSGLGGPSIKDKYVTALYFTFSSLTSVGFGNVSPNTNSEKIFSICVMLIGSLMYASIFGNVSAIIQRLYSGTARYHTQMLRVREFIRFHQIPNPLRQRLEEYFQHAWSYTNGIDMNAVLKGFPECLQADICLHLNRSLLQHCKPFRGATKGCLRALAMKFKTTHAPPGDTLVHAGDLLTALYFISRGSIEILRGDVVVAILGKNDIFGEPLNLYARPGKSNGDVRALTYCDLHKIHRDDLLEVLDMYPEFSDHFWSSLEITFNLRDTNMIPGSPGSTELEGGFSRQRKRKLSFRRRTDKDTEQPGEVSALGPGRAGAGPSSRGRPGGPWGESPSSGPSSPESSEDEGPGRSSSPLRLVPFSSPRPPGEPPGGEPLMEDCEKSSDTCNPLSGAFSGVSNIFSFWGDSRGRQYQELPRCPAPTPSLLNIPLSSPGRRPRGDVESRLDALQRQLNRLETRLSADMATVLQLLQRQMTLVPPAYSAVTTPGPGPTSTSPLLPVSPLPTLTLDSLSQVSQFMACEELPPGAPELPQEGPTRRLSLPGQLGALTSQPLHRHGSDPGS
Description: Dysfunction of both sodium and calcium ion channels is known to be one of the crucial reasons behind the pathogenesis of seizures. Consequently, these ion channels are molecular targets for several clinically important ASDs such as lacosamide, lamotrigine, carbamazepine, oxcarbazepine and compounds currently under preclinical and clinical studies. Thus, for KA-228 and KA-232, we tested herein their binding profile toward the aforementioned ion channels at concentrations of 10 and 100 µM (Table 3). […] Apart from in vitro studies focused on explaining the mechanism of action, KA-232 was additionally tested for its interaction with the potassium channel (hERG) which is recognized as one of the most important ‘off-targets’ responsible for harmful arrhythmogenic activity. Thus, the interaction of potential drug candidates with hERG must be excluded at an early stage of development.
(§1) Binding studies were carried out commercially in Eurofins Laboratories (Poitiers, France or New Taipei City, Taiwan).

[1] = tested on: 6-Hz-induced psychomotor seizures in mice; conditions: i.p., cited from earlier work
[2] = tested on: Calcium Cav1.2 channel (verapamil site, antagonist radioligand); set-up: method as in PMID 30247871; conditions: 100 µM; cited from earlier work
[3] = set-up: method as in PMID 30247871; conditions: cited from earlier work
[4] = tested on: tonic–clonic seizures in mice; conditions: i.p.; cited from earlier work
[5] = target: T2, Calcium Cav2.2 channel (antagonist radioligand) (Rattus norvegicus, UniProt Q02294); set-up: method as in PMID 26052884; conditions: 100 µM; cited from earlier work
T2 construct: rat cerebral cortex; tissue Eurofins Laboratories; host or cells: rat cerebral cortex

CYP3A4 = target: T3, CYP3A4 (Homo sapiens, UniProt P08684); set-up: method as in PMID 26052884; conditions: 10 µM; cited from earlier work
T3 construct: purchased Promega, Madison, WI, USA
T3 sequence (P08684 whole entry): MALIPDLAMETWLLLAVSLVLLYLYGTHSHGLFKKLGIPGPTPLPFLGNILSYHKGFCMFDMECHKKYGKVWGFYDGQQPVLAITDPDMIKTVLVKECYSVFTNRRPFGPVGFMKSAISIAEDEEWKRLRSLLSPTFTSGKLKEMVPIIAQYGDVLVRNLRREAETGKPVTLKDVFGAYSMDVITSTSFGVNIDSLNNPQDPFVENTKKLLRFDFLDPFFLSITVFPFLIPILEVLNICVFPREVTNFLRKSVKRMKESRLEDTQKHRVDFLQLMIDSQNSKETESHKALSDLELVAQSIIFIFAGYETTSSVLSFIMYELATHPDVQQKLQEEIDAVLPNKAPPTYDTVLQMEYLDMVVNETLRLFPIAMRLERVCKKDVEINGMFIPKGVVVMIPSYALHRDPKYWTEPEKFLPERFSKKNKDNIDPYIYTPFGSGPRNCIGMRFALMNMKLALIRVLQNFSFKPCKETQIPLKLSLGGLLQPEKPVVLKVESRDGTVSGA

[6] = tested on: Glutamate (NMDA, nonselective, antagonist radioligand, [3H] Ifenprodil radioligand); set-up: method as in PMID 30247871; conditions: 100 µM; cited from earlier work
Na^+ channel (site 2) = tested on: Na^+ channel (site 2); set-up: method as in PMID 26052884; conditions: 100 µM; cited from earlier work
[7] = set-up: method as in PMID 26052884; conditions: cited from earlier work
[8] = tested on: motor performance in mice; conditions: i.p.; cited from earlier work
[9] = tested on: PTZ-induced clonic seizures in mice; conditions: i.p., cited from earlier work
[10] = tested on: Glutamate (AMPA, nonselective, antagonist radioligand, [3H] AMPA radioligand); set-up: method as in PMID 30247871; conditions: 100 µM; cited from earlier work
hepatoma HepG2 = tested on: hepatoma HepG2; set-up: method as in PMID 30247871; conditions: 10 µM; cited from earlier work
CYP2D6 = target: T4, CYP2D6 (Homo sapiens, UniProt P10635); set-up: method as in PMID 30247871; conditions: cited from earlier work
T4 construct: purchased Promega, Madison, WI, USA
T4 sequence (P10635 whole entry): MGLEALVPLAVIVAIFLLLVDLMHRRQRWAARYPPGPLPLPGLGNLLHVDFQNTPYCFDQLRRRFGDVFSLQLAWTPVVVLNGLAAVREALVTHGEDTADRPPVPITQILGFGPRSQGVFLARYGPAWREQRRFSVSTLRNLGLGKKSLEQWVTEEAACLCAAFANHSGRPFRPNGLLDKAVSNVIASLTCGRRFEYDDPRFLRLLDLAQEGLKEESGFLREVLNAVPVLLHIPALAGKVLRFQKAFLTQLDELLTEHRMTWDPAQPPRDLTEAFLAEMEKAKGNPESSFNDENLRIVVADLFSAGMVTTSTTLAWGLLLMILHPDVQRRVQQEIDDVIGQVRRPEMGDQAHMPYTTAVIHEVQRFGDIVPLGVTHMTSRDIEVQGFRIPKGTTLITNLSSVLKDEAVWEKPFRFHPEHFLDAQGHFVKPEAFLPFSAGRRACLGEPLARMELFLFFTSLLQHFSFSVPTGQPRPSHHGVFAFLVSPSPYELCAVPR

[11] = tested on: Calcium Cav1.2 channels (diltiazem site, antagonist radioligand); set-up: method as in PMID 30247871; conditions: 100 µM; cited from earlier work
[12] = target: T5, TRPV1 (VR1) (antagonist effect) (Homo sapiens, UniProt Q8NER1); assay: TRPV1 antagonist functional assay (intracellular Ca2+, CHO cells); format: cell-based; conditions: CHO; 100 µM; not published before; read-out: % Inhibition of control specific binding (functional, antagonist effect)
T5 construct: host or cells: CHO cells
T5 sequence (Q8NER1 whole entry): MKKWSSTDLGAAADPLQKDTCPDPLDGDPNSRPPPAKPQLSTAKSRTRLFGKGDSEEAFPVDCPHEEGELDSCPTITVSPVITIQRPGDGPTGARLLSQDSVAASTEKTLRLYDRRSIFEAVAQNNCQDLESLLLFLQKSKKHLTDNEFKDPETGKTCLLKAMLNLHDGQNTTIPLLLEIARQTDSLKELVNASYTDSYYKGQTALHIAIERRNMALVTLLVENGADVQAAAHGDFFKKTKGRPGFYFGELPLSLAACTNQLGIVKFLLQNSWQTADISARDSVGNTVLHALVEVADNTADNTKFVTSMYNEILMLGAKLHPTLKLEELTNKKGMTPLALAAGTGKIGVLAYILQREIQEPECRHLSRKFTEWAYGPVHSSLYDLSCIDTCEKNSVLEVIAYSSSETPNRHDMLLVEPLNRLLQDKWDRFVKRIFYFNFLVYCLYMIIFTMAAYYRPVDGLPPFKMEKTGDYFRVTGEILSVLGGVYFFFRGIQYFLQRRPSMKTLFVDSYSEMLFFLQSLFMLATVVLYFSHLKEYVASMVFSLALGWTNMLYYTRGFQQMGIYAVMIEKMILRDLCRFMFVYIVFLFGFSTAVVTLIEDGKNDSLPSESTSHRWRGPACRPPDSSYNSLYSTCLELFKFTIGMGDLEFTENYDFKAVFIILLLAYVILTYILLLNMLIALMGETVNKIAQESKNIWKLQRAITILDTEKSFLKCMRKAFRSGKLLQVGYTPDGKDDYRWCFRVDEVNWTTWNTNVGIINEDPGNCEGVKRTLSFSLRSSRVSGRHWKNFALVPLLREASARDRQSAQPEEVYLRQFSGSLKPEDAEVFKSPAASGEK
Description: as §1

[13] = tested on: neuromuscular strength in mice; set-up: method as in PMID 34074008; conditions: single administration 30 mg/kg; cited from earlier work
[14] = tested on: seizure susceptibility in mice; set-up: method as in PMID 28412310; conditions: 100 mg/kg; cited from earlier work
[15] = tested on: Calcium Cav1.2 channels (dihydropyridine site, antagonist radioligand); set-up: method as in PMID 26052884; conditions: 100 µM; cited from earlier work
[16] = target: GABAA (α1,β2,γ2) (agonist radioligand) (Homo sapiens, UniProt P14867+P47870); set-up: method as in PMID 30247871; conditions: 100 µM; cited from earlier work
Chain of GABAA (α1,β2,γ2) (agonist radioligand) (P14867 28-456): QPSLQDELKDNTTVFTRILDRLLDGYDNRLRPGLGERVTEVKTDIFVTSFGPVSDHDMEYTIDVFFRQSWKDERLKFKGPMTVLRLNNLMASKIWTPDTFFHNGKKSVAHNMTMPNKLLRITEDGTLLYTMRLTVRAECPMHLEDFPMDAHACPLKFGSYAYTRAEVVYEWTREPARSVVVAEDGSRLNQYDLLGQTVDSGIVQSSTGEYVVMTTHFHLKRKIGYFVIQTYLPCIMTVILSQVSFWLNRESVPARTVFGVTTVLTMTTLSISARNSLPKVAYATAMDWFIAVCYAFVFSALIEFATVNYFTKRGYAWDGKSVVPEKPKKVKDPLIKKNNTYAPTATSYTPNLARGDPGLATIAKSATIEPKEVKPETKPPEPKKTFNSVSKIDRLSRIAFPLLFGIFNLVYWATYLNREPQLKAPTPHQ
Chain of GABAA (α1,β2,γ2) (agonist radioligand) (P47870 25-512 limits assumed): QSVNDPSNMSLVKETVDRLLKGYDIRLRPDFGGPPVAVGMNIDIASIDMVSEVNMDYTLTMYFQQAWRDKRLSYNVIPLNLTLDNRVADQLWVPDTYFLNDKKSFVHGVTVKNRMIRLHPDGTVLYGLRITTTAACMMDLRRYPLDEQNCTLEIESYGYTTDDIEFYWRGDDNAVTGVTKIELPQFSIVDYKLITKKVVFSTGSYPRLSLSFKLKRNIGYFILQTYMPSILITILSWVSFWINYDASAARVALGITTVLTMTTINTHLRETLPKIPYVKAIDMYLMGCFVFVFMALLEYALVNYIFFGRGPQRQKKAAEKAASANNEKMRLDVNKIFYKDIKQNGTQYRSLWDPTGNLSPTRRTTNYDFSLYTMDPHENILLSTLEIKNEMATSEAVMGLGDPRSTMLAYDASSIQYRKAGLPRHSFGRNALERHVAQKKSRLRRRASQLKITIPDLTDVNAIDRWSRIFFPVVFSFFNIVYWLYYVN
Chain of GABAA (α1,β2,γ2) (agonist radioligand) (P18507 40-475 partner): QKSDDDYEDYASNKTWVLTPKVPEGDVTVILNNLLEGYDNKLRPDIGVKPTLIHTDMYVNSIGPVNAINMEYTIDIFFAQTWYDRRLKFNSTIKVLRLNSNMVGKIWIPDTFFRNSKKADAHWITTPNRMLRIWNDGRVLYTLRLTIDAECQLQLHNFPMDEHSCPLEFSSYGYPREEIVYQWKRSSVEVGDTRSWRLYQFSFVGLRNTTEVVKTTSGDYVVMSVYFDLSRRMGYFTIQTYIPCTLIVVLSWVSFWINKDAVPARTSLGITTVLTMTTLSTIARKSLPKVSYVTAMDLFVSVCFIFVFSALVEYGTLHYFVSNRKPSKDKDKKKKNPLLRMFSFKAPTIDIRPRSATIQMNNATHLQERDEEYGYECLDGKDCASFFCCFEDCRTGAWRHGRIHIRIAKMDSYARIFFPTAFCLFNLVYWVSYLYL

Structure (SMILES): CC(C(=O)N1CCN(c2cccc(C(F)(F)F)c2)CC1)N1C(=O)CCC1=O (stereo not shown) [KA-11]
- inhibition at 60 min, 100 µM (hERG potassium channel): 15%
- ED50 6 Hz ± SD ([1]; 32 mA): 21.0 ± 32.19 mg/kg
- TI (TD50/ED50), 6 Hz [1]: > 71.43
- % Inhibition of Control Specific Binding [2]: 1.5 (100) ^# %
- PAMPA Pe ± SD [3]: 27.1 ± 3.8 ^b [9] 10^−6 cm/s
- ED50 MES ± SD [4]: 88.4 ± 34.16 mg/kg
- TI (TD50/ED50), MES [4]: > 16.97
- % Inhibition of Control Specific Binding [5]: 13.9 (100) * %
- CYP3A4 activity (% of control ± SD) (CYP3A4): 99.21 ± 4.9 [6] % of control
- % Inhibition of Control Specific Binding [6]: 13.0 (100) ^# %
- % Inhibition of Control Specific Binding (Na^+ channel (site 2)): 37.4 (100) * %
- Metabolic stability (% remaining after incubation with HLMs) [7]: 73.49 [6] %
- TD50 [8]: >1500 mg/kg
- ED50 PTZ ± SD ([9]; scPTZ): 59.9 ± 19.55 mg/kg
- TI (TD50/ED50), PTZ [9]: > 25.04
- % Inhibition of Control Specific Binding [10]: −2.9 (100) ^# %
- HepG2 viability (% of control ± SD) (hepatoma HepG2): 99.78 ± 2.18 [9] % of control
- CYP2D6 activity (% of control ± SD) (CYP2D6; 10 µM): 122.30 ± 2.02 [9] % of control
- effect on CYP2D6 activity (CYP2D6; at 1 and 10 µM): slight induction
- % Inhibition of Control Specific Binding [11]: 44.9 (100) ^# %
- inhibition at 100 µM [12]: 33%
- effect on muscle strength [13]: no statistically significant abnormalities
- effect on thresholds for all studied endpoints (myoclonic twitch, generalized clonus, forelimb tonus) [14]: significant increase
- % Inhibition of Control Specific Binding [15]: 64.2 (100) * %
- % Inhibition of Control Specific Binding [16]: −28.1 (100) ^# %
